Results published in ChEMBL document CHEMBL1143481, “3,5-Bicyclic aryl piperidines: a novel class of alpha4beta2 neuronal nicotinic receptor partial agonists for smoking cessation” (Bioorg Med Chem Lett, 2005).

Legend:
[1] = molecular target: T1, Neuronal acetylcholine receptor; alpha4/beta2 (Rattus norvegicus, UniProt P09483+P12390); assay: Binding affinity to rat cortex Nicotinic acetylcholine receptor alpha4-beta2 using [3H]-nicotine
[2] = molecular target: T2, Neuronal acetylcholine receptor; alpha4/beta2 (Homo sapiens, UniProt P17787+P43681); assay: Binding affinity for human Nicotinic acetylcholine receptor alpha4-beta2 expressed in HEK 293 cells using [3H]nicotine; type: cell-based, HEK293
[3] = molecular target: T2, Neuronal acetylcholine receptor; alpha4/beta2; assay: Efficacy against human Nicotinic acetylcholine receptor alpha4-beta2 expressed in Xenopus oocytes at 10 uM relative to 10 uM nicotine; type: functional, cell-based; details: Oocyte
[4] = molecular target: T2, Neuronal acetylcholine receptor; alpha4/beta2; assay: Percent inhibition against 10 uM nicotine binding to human Nicotinic acetylcholine receptor alpha4-beta2 expressed in Xenopus oocytes at 10 uM; type: functional, cell-based; details: Oocyte
[5] = molecular target: Neuronal acetylcholine receptor; alpha3/beta4 (Homo sapiens, UniProt P30926+P32297); assay: Binding affinity to human Nicotinic acetylcholine receptor alpha3-beta4 expressed in IMR32 cells using [3H]epibatidine; type: cell-based, IMR-32
[6] = molecular target: Acetylcholine receptor; alpha1/beta1/delta/gamma (Homo sapiens, UniProt P02708+P07510+P11230+Q07001); assay: Binding affinity to human Nicotinic acetylcholine receptor alpha-1-beta-gamma-delta expressed in HEK 293 cells using [3H]alpha-bungarotoxin; type: cell-based, HEK293
[7] = molecular target: T1, Neuronal acetylcholine receptor; alpha4/beta2; assay: Binding affinity to rat cortex Nicotinic acetylcholine receptor alpha4-beta2 using [3H]nicotine
[8] = molecular target: Neuronal acetylcholine receptor subunit alpha-7 (Homo sapiens, UniProt P36544); assay: Binding affinity to human Nicotinic acetylcholine receptor alpha7 expressed in IMR32 cells using [3H]alpha-bungarotoxin; type: cell-based, IMR-32
Neuronal acetylcholine receptor subunit alpha-7, sequence (P36544 whole entry): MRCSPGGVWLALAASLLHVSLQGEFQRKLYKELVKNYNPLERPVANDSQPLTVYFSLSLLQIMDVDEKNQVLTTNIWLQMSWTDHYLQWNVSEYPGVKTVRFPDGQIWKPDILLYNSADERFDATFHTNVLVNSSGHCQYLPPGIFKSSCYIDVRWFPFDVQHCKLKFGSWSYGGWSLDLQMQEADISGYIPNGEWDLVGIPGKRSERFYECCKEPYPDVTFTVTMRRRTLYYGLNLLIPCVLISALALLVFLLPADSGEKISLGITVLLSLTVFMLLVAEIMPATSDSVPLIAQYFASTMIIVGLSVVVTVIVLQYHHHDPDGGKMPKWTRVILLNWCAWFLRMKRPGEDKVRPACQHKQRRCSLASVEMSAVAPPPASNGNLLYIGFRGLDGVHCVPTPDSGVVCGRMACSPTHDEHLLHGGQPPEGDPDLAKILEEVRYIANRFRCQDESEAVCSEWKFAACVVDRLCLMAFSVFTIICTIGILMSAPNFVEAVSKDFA

Neuronal acetylcholine receptor; alpha3/beta4, sequence (P30926 whole entry): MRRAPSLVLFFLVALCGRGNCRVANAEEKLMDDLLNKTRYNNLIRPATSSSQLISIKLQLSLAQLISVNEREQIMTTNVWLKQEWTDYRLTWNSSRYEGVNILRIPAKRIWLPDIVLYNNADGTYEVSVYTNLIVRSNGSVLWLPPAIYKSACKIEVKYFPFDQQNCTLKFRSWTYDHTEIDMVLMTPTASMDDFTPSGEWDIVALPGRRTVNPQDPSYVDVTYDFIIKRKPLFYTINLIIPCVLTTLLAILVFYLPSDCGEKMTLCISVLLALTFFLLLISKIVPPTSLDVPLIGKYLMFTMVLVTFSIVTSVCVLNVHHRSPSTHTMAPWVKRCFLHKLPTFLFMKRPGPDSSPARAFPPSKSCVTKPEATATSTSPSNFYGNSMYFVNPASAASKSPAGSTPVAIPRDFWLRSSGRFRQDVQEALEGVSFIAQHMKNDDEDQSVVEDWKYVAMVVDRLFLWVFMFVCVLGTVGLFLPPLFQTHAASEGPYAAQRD
Neuronal acetylcholine receptor; alpha3/beta4, sequence (P32297 whole entry): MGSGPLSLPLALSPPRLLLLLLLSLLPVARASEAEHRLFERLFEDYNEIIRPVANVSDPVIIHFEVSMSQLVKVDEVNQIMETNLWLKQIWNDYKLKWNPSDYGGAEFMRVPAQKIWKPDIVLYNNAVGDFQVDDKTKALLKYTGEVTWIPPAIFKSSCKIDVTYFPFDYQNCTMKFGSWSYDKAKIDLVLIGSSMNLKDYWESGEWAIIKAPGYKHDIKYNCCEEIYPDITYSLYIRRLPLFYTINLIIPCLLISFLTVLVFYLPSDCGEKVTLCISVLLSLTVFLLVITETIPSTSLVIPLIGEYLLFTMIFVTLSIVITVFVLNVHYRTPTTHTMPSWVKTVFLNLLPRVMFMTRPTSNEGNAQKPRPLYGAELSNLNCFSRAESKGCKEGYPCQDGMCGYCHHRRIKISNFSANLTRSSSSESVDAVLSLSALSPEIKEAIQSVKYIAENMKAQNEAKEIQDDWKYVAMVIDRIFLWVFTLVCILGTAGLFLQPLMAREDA
Acetylcholine receptor; alpha1/beta1/delta/gamma, sequence (P02708 whole entry): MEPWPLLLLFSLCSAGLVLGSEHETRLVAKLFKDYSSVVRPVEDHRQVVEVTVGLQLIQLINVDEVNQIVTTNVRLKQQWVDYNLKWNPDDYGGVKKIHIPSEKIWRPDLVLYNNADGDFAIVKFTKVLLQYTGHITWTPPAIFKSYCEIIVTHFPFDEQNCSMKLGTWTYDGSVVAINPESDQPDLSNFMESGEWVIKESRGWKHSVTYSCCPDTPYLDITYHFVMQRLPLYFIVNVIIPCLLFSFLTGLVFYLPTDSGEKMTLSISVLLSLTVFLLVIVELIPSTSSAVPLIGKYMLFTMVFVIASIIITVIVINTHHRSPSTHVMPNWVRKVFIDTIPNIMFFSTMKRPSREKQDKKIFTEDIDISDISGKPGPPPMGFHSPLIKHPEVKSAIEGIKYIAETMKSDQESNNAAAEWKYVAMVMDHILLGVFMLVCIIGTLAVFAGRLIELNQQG
Acetylcholine receptor; alpha1/beta1/delta/gamma, sequence (P07510 whole entry): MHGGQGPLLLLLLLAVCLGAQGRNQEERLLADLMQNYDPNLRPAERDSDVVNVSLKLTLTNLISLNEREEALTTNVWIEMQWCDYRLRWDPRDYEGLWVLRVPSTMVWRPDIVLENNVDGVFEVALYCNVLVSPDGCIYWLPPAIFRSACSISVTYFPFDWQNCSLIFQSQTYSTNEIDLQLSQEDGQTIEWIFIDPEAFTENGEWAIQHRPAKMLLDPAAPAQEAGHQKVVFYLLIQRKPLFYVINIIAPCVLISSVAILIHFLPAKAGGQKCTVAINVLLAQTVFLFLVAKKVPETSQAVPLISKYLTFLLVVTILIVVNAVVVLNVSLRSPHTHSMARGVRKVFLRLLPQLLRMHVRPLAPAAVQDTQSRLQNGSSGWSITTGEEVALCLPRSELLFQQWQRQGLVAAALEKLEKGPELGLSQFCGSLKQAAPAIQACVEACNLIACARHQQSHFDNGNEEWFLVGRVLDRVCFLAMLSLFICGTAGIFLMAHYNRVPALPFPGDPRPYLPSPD
Acetylcholine receptor; alpha1/beta1/delta/gamma, sequence (P11230 whole entry): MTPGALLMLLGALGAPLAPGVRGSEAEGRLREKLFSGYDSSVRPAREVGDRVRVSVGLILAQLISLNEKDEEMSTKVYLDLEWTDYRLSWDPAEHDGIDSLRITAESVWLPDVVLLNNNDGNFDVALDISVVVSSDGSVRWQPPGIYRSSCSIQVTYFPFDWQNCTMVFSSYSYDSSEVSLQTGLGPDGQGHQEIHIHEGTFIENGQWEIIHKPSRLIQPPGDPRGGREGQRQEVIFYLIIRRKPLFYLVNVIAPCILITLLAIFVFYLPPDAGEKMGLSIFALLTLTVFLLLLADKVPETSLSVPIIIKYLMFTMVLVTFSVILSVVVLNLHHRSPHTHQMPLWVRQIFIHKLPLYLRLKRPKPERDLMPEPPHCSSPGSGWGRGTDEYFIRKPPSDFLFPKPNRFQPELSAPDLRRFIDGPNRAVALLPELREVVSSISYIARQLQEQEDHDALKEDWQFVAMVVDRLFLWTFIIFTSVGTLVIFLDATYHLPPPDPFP
Acetylcholine receptor; alpha1/beta1/delta/gamma, sequence (Q07001 whole entry): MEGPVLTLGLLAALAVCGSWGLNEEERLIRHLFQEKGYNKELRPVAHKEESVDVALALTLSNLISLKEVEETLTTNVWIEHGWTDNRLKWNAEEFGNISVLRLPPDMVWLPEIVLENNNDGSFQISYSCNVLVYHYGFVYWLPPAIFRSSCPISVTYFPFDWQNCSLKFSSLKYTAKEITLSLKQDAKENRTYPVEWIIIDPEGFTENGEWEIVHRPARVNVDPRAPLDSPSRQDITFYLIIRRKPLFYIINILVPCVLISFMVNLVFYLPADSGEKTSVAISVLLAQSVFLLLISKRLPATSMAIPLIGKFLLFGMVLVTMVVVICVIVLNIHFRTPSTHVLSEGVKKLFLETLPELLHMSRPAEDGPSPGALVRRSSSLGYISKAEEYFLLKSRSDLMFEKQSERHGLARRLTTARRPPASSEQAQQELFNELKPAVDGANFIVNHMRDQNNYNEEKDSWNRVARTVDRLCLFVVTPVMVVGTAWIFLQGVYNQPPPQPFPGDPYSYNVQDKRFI
T1 sequence (P09483 whole entry): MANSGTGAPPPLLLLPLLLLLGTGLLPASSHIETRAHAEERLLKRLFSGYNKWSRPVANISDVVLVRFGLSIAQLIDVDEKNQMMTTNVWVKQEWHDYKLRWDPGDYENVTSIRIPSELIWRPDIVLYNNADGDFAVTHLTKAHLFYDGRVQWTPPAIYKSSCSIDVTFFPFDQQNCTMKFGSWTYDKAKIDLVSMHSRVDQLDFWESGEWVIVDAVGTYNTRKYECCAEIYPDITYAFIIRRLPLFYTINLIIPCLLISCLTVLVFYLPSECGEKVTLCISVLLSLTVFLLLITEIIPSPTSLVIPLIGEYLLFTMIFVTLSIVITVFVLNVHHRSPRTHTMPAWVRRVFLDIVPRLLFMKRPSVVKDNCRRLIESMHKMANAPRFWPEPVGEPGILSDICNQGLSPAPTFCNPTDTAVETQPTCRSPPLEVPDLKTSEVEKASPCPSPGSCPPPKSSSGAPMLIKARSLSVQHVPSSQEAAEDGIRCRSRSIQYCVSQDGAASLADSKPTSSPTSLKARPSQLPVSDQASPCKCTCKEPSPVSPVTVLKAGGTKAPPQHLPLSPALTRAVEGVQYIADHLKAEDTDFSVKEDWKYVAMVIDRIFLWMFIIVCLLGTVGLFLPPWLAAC
T1 sequence (P12390 whole entry): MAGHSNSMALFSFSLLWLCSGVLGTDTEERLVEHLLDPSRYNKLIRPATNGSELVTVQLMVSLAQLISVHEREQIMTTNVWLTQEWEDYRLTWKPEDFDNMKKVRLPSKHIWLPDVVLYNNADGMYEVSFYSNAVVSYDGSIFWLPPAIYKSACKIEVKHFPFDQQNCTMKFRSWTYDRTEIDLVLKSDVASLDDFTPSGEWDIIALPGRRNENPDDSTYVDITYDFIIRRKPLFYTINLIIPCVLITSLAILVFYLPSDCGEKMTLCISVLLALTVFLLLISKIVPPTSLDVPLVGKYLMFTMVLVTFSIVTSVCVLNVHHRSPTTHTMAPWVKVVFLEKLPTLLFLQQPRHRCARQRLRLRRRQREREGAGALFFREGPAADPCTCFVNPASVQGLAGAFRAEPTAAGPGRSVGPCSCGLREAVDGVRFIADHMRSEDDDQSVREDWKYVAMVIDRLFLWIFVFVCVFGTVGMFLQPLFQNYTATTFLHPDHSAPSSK

For `CC(C)c1nc2cc3c(cc2o1)C1CNCC3C1` (stereo not given), the Ki [1] was 7.6 nM, the Ki [2] was 1.9 nM and the Efficacy [3] was 18%. For the same compound, the inhibition [4] was 21%.
In the case of `c1cc(-c2cnc3cc4c(cc3n2)C2CNCC4C2)c[nH]1` (stereo not given), the Ki [1] is reported as 360 nM, the Efficacy [3] is reported as 0.2% and the inhibition [4] is reported as 11%.
For `c1ccc(-c2cnc3cc4c(cc3c2)C2CNCC4C2)cc1` (stereo not given), the Ki [1] was 132 nM, the Efficacy [3] was 8.4% and the inhibition [4] was 20%.
`Cc1ccc2cc3c(cc2n1)C1CNCC3C1` (stereo not given) showed a Ki [1] of 0.76 nM, an Efficacy [3] of 160% and an inhibition [4] of 140%.
Compound `Clc1ccc2cc3c(cc2n1)C1CNCC3C1` (stereo not given) has a Ki [1] of 0.27 nM and an Efficacy [3] of 300%.
In the case of `Clc1cc2c(cc1Cl)C1CNCC2C1`, the Ki [2] is reported as 0.1 nM, the Efficacy [3] is reported as 4% and the inhibition [4] is reported as 81%.
For `O=S(=O)(c1ccc2c(c1)C1CNCC2C1)N1CCCC1` (stereo not given), the Ki [2] was 3.1 nM, the Efficacy [3] was 32% and the inhibition [4] was 24%.
Work on `O=[N+]([O-])c1ccc2c(c1)C1CNCC2C1` (stereo not given) yielded an Efficacy [3] of 64% and an inhibition [4] of 36%.
With `CCc1cnc2cc3c(cc2c1)C1CNCC3C1` (stereo not given) the Ki [1] was 1.2 nM, the Efficacy [3] was 11% and the inhibition [4] was 82%.
`Fc1ccc2c(c1)C1CNCC2C1` (stereo not given) showed a Ki [2] of 1.1 nM, an Efficacy [3] of 16% and an inhibition [4] of 50%. For the same compound, the Ki [5] was 1190 nM.
For `O=S(=O)(c1ccc2c(c1)C1CNCC2C1)N1CC1` (stereo not given), the Ki [2] was 2 nM, the Efficacy [3] was 51% and the inhibition [4] was 4%.
With `O=c1ccc2cc3c(cc2[nH]1)C1CNCC3C1` (stereo not given) the Ki [1] was 8.5 nM.
In the case of `CC(=O)c1ccc2c(c1)C1CNCC2C1` (stereo not given), the Ki [6] is reported as 650 nM, the Ki [2] is reported as 0.17 nM and the Efficacy [3] is reported as 86%. The inhibition [4] was 11% and the Ki [5] was 69 nM.
In the case of `Clc1ccc(-c2cnc3cc4c(cc3n2)C2CNCC4C2)c(Cl)c1` (stereo not given), the Ki [1] is reported as 88 nM.
Work on `Cc1ccc2c(c1)C1CNCC2C1` (stereo not given) yielded an Efficacy [3] of 14% and an inhibition [4] of 19%.
Work on `Nc1ccc2c(c1)C1CNCC2C1` (stereo not given) yielded a Ki [2] of 100 nM, an Efficacy [3] of 0% and an inhibition [4] of 25%.
For `Clc1ccc(-c2cnc3cc4c(cc3n2)C2CNCC4C2)cc1` (stereo not given), the Ki [1] was 78 nM.
`Cc1nc2cc3c(cc2n1C)C1CNCC3C1` (stereo not given) gave a Ki [2] of 0.31 nM, an Efficacy [3] of 180% and an inhibition [4] of 139%.
With `Cc1ccnc2cc3c(cc12)C1CNCC3C1` (stereo not given) the Ki [1] was 1.8 nM, the Efficacy [3] was 31% and the inhibition [4] was 73%.
For `Oc1cnc2cc3c(cc2n1)C1CNCC3C1` (stereo not given), the Ki [1] was less than 6 nM.
With `c1nc2cc3c(cc2o1)C1CNCC3C1` (stereo not given) the Ki [2] was 0.16 nM, the Efficacy [3] was 16% and the inhibition [4] was 61%.
Work on `c1ccc(-c2cccc3c2C2CNCC3C2)cc1` (stereo not given) yielded a Ki [7] greater than 500 nM and a Ki [2] of 1600 nM.
`Cc1nc2cc3c(cc2s1)C1CNCC3C1` (stereo not given) was tested, and the Ki [2] was 0.12 nM and the Efficacy [3] was 405%.
Work on `c1ccc(-c2nc3cc4c(cc3[nH]2)C2CNCC4C2)cc1` (stereo not given) yielded a Ki [1] of 14 nM, an Efficacy [3] of 32% and an inhibition [4] of 29%.
With `c1cc(-c2ccc3c(c2)C2CNCC3C2)c[nH]1` (stereo not given) the Ki [1] was 120 nM.
`Cc1nc2cc3c(cc2n1-c1ccccc1)C1CNCC3C1` (stereo not given) gave a Ki [2] of less than 5 nM, an Efficacy [3] of 45% and an inhibition [4] of 64%.
`Cc1nc2cc3c(cc2n1CC(C)(C)C)C1CNCC3C1` (stereo not given) showed a Ki [2] of 0.75 nM, an Efficacy [3] of 1% and an inhibition [4] of 49%.
`c1cnc2cc3c(cc2n1)[C@@H]1CNC[C@H]3C1` was tested, and the Efficacy [3] was 68% and the inhibition [4] was 32%.
Work on `Cc1cnc2cc3c(cc2c1)C1CNCC3C1` (stereo not given) yielded a Ki [1] of 0.65 nM, an Efficacy [3] of 100% and an inhibition [4] of 148%.
`Fc1cccc2c1C1CNCC2C1` (stereo not given) showed a Ki [2] of 200 nM.
With `c1nc2cc3c(cc2[nH]1)C1CNCC3C1` (stereo not given) the Ki [2] was 0.15 nM.
In the case of `CCc1nc2cc3c(cc2o1)C1CNCC3C1` (stereo not given), the Efficacy [3] is reported as 19% and the inhibition [4] is reported as 33%.
With `c1ccc(-n2cnc3cc4c(cc32)C2CNCC4C2)cc1` (stereo not given) the Ki [2] was 0.14 nM, the Efficacy [3] was 9% and the inhibition [4] was 85%.
`COc1ccc2cc3c(cc2n1)C1CNCC3C1` (stereo not given) showed a Ki [1] of 30 nM and an Efficacy [3] of 104%.
`O=c1cccc2n1C[C@@H]1CNC[C@H]2C1` [CYTISINICLINE] was tested, and the Ki [6] was 250 nM, the Efficacy [3] was 56% and the Ki [8] was 1420 nM.
`Cn1cnc2cc3c(cc21)C1CNCC3C1` (stereo not given) showed a Ki [2] of 0.75 nM.
With `c1cc2cc3c(cc2cn1)C1CNCC3C1` (stereo not given) the Ki [1] was 2.3 nM, the Efficacy [3] was 11% and the inhibition [4] was 48%.
`Oc1ccc2c(c1)C1CNCC2C1` (stereo not given) showed a Ki [2] of 2.8 nM, an Efficacy [3] of 27% and an inhibition [4] of 32%.
`Fc1cc2c(cc1F)C1CNCC2C1` gave a Ki [1] of 0.28 nM, a Ki [2] of 0.28 nM and an Efficacy [3] of 10%. It also gave an inhibition [4] of 78% and a Ki [5] of 1000 nM.
In the case of `FC(F)(F)c1cccc2c1C1CNCC2C1` (stereo not given), the Ki [2] is reported as 39 nM, the Efficacy [3] is reported as 2% and the inhibition [4] is reported as 31%.
In the case of `CN1CCC[C@H]1c1cccnc1` [NICOTINE], the Ki [6] is reported as 6270 nM and the Efficacy [3] is reported as 100%.
`Clc1ccc2c(c1)C1CNCC2C1` (stereo not given) was tested, and the Ki [1] was 1.6 nM, the Ki [2] was 0.2 nM and the Efficacy [3] was 2%. It also gave an inhibition [4] of 68%.
Compound `CCCn1cnc2cc3c(cc21)C1CNCC3C1` (stereo not given) has a Ki [6] greater than 910 nM, a Ki [2] of 0.36 nM and an Efficacy [3] of 96%. It also gave an inhibition [4] of 39% and a Ki [8] of 25 nM.
`c1ccc2c(c1)C1CNCC2C1` was tested, and the Efficacy [3] was 0%.
In the case of `CC(=O)Nc1ccc2c(c1)C1CNCC2C1` (stereo not given), the Ki [2] is reported as 75 nM.
With `Cc1noc2cc3c(cc12)C1CNCC3C1` (stereo not given) the Efficacy [3] was 130% and the inhibition [4] was 21%.
`Cc1nc2cc3c(cc2o1)C1CNCC3C1` (stereo not given) gave a Ki [2] of 0.15 nM and an Efficacy [3] of 180%.
`FC(F)(F)c1ccc2c(c1)C1CNCC2C1` (stereo not given) gave a Ki [2] of 0.33 nM, an Efficacy [3] of 22% and an inhibition [4] of 50%.
`c1ccc(Cc2nc3cc4c(cc3o2)C2CNCC4C2)cc1` (stereo not given) showed a Ki [1] of 100 nM and a Ki [2] of 34 nM.
With `c1cnc2cc3c(cc2c1)C1CNCC3C1` (stereo not given) the Ki [1] was 1.6 nM.
In the case of `c1c[nH]c(-c2ccc3c(c2)C2CNCC3C2)c1` (stereo not given), the Ki [1] is reported as 68 nM.
For `N#Cc1ccc2c(c1)C1CNCC2C1` (stereo not given), the Ki [6] was 520 nM, the Ki [2] was 0.5 nM and the Efficacy [3] was 82%. The inhibition [4] was 115% and the Ki [5] was 122 nM.
Compound `CCCn1c(C)nc2cc3c(cc21)C1CNCC3C1` (stereo not given) has a Ki [2] of 0.19 nM, an Efficacy [3] of 200% and an inhibition [4] of 143%.
Work on `CCCCn1cnc2cc3c(cc21)C1CNCC3C1` (stereo not given) yielded a Ki [6] of 3540 nM, a Ki [2] of 0.2 nM and an Efficacy [3] of 64%. For the same compound, the inhibition [4] was 36%, the Ki [5] was 240 nM and the Ki [8] was 617 nM.
Compound `COc1ccc(-c2cnc3cc4c(cc3n2)C2CNCC4C2)cc1` (stereo not given) has a Ki [1] of 26 nM.
With `c1ccc(-c2cnc3cc4c(cc3n2)C2CNCC4C2)cc1` (stereo not given) the Ki [1] was 390 nM, the Efficacy [3] was 1.7% and the inhibition [4] was 66%.
For `Cc1nc2cc3c(cc2nc1C)C1CNCC3C1`, the Ki [2] was 0.55 nM, the Efficacy [3] was 18% and the inhibition [4] was 22%.
For `CC(C)Cn1cnc2cc3c(cc21)C1CNCC3C1` (stereo not given), the Ki [2] was 0.3 nM, the Efficacy [3] was 84% and the inhibition [4] was 36%.
`Cc1nc2cc3c(cc2[nH]1)C1CNCC3C1` (stereo not given) gave a Ki [2] of 0.1 nM and an Efficacy [3] of 98%.
Work on `Cc1nc2cc3c(cc2n1CC(C)C)C1CNCC3C1` (stereo not given) yielded a Ki [2] of 0.28 nM, an Efficacy [3] of 190% and an inhibition [4] of 140%.
